Laboratory results reported in US7585895B2, “Therapeutic substituted cyclopentanes” (Allergan, Inc., priority 2005, dated 2009).

Columns and labels:
EP4 receptors = target: T1, EP4 receptors (Homo sapiens, UniProt P35408); assay: Radioligand binding, [3H]PGE2, EP4 (Ki); conditions: HEK-293 cells stably expressing EP4, [3H]PGE2
T1 construct: expressed in transfected cells; membrane pellet
Experimental: HEK-293 cells stably expressing the human or feline FP receptor, or EP1, EP2, or EP4 receptors were washed with TME buffer, scraped from the bottom of the flasks, and homogenized for 30 sec using a Brinkman PT 10/35 polytron. TME buffer was added to achieve a final 40 ml volume in the centrifuge tubes (the composition of TME is 100 mM TRIS base, 20 mM MgCl2, […]; 10N HCl is added to achieve a pH of 7.4).
The cell homogenate was centrifuged at 19000 r.p.m. for 20 min at 4° C using a Beckman Ti-60 rotor. The resultant pellet was resuspended in TME buffer to give a final 1 mg/ml protein concentration, as determined by Biorad assay. Radioligand binding competition assays vs. [^3H-]17-phenyl PGF2α. (5 nM) were performed in a 100 μl volume for 60 min. Binding reactions were started by adding plasma membrane fraction. The reaction was terminated by the addition of 4 ml ice-cold TRIS-HCl buffer and rapid filtration through glass fiber GF/B filters using a Brandel cell harvester. The filters were washed 3 times with ice-cold buffer and oven dried for one hour.
[^3H-] PGE2 (specific activity 180 Ci mmol) was used as the radioligand for EP receptors. [^3H] 17-phenyl PGF2α, was employed for FP receptor binding studies. Binding studies employing EP1, EP2, EP4 and FP receptors were performed in duplicate in at least three separate experiments. A 200 μl assay volume was used. Incubations were for 60 min at 25° C. and were terminated by the addition of 4 ml of ice-cold 50 mM TRIS-HCl, followed by rapid filtration through Whatman GF/B filters and three additional 4 ml washes in a cell harvester (Brandel). Competition studies were performed using a final concentration of 5 nM [^3H]-PGE2, or 5 nM [^3H] 17-phenyl PGF2αand non-specific binding determined with 10^−5M of unlabeled PGE2, or 17-phenyl PGF2α, according to receptor subtype studied.

hIP = target: T2, hIP (Homo sapiens, UniProt P43119); assay: FLIPR calcium signal, IP; format: cell-based; conditions: HEK-293(EBNA); for EC50: read-out: Ca2+ Signal-EC50 (nM) IP
T2 construct: expressed in transfected cells
Experimental: (§1) HEK-293(EBNA) cells, stably expressing one type or subtype of recombinant human prostaglandin receptors (prostaglandin receptors expressed: hDP/Gqs5; hEP1; hEP2/Gqs5; hEP3A/Gqi5; hEP4/Gqs5; hFP; hIP; hTP), were cultured in 100 mm culture dishes in high-glucose DMEM medium containing 10% fetal bovine serum, 2 mM 1-glutamine, 250 μg/ml geneticin (G418) and 200 μg/ml hygromycin B as selection markers, and 100 units/ml penicillin G, 100 μg/ml streptomycin and 0.25 μg/ml amphotericin B.
(§2) Cells were seeded at a density of 5×10^4 cells per well in Biocoat® Poly-D-lysine-coated black-wall, clear-bottom 96-well plates (Becton-Dickinson) and allowed to attach overnight in an incubator at 37° C. Cells were then washed two times with HBSS-HEPES buffer (Hanks Balanced Salt Solution without bicarbonate and phenol red, 20 mM HEPES, pH 7.4) using a Denley Cellwash plate washer (Labsystems). After 45 minutes of dye-loading in the dark, using the calcium-sensitive dye Fluo-4 AM at a final concentration of 2 μM, plates were washed four times with HBSS-HEPES buffer to remove excess dye leaving 100 μl in each well. Plates were re-equilibrated to 37° C. for a few minutes.
(§3) Cells were excited with an Argon laser at 488 nm, and emission was measured through a 510-570 nm bandwidth emission filter (FLIPR™, Molecular Devices, Sunnyvale, Calif.). Drug solution was added in a 50 μl volume to each well to give the desired final concentration. The peak increase in fluorescence intensity was recorded for each well. On each plate, four wells each served as negative (HBSS-HEPES buffer) and positive controls (standard agonists: BW245C (hDP); PGE2 (HEP1; hEP2/Gqs5; hEP3A/Gqi5; hEP4/Gqs5); PGF2α (hFP); carbacyclin (hIP); U-46619 (hTP), depending on receptor). The peak fluorescence change in each drug-containing well was then expressed relative to the controls.
(§4) Compounds were tested in a high-throughput (HTS) or concentration-response (CoRe) format. In the HTS format, forty-four compounds per plate were examined in duplicates at a concentration of 10^−5 M. To generate concentration-response curves, four compounds per plate were tested in duplicates in a concentration range between 10^−5 and 10^−11 M. The duplicate values were averaged. In either, HTS or CoRe format each compound was tested on at least 3 separate plates using cells from different passages to give an n≧3.

hDP/Gqs5 = target: T3, hDP/Gqs5 (Homo sapiens, UniProt Q13258); assay: FLIPR calcium signal, DP; format: cell-based; conditions: HEK-293(EBNA)
T3 construct: expressed in transfected cells
T3 sequence (Q13258 1-359): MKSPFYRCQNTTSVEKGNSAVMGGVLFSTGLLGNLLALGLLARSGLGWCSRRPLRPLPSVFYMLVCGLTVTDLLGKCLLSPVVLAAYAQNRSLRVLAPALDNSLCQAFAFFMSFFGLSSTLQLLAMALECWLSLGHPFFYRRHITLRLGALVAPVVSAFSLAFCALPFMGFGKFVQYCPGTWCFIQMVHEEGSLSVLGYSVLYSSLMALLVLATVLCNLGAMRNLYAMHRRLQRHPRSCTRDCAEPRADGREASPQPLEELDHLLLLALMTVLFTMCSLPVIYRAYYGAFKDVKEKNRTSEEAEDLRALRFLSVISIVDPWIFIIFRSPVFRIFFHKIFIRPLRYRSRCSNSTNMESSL
Experimental: as §1, §2, §3, §4

T1 sequence (P35408 whole entry): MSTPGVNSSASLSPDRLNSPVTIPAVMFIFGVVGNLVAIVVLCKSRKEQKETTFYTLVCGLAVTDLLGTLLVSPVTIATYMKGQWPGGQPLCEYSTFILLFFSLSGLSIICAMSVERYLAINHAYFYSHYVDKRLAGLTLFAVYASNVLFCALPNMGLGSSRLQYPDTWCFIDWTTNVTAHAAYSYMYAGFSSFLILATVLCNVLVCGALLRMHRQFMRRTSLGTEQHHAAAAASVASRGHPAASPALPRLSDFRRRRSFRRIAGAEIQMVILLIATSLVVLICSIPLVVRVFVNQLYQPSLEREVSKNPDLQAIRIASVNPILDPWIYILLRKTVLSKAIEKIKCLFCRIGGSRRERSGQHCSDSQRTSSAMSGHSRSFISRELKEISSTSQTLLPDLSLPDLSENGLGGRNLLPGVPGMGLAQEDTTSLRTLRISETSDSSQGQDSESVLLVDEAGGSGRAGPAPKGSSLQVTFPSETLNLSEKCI
T2 sequence (P43119 whole entry): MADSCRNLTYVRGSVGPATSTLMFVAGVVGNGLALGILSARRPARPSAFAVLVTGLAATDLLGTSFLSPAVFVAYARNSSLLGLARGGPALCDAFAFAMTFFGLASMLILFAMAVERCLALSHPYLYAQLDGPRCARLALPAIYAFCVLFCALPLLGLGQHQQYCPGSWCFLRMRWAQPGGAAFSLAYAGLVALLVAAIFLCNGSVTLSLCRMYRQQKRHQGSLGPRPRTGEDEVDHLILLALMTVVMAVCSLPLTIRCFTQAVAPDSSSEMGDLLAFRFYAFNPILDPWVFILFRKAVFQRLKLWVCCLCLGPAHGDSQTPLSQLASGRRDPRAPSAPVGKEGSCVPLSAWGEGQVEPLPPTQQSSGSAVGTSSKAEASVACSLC

SMILES | Ki (EP4 receptors) [nM] | EC50 (hIP) [nM] | Ca2+ Signal-EC50 (nM) DP (hDP/Gqs5) | Ca2+ Signal-EC50 (nM) IP (hIP) | BINDING-Ki (nM) EP4 (EP4 receptors)
CCCCCC(O)c1ccc([C@@H]2[C@@H](C/C=C\CCCC(=O)O)[C@@H](Cl)C[C@H]2O)cc1 (stereo partly drawn) [Entry 9, (Z)-7-{(1R,2S,3R,5S)-5-Chloro-3-hydroxy-2-[4-(1-hydroxy-hexyl)-phenyl]-cyclopentyl}-hept-5-enoic acid] | 4590 | 6880 | not active |  | 
CC(C)(C)CCCC(O)c1ccc([C@@H]2[C@@H](CCCCCCC(=O)O)[C@H](Cl)C[C@H]2O)cc1 (mixture of isomers) [Entry 20, 7-{(1R,2S,3R,5R)-5-Chloro-3-hydroxy-2-[4-(1-hydroxy-5,5-dimethyl-hexyl)-phenyl]-cyclopentyl}-heptanoic acid] | 3800 |  | not active | not active | 
O=C(O)CCCCCC[C@@H]1[C@@H](c2ccc(C(O)CCc3ccccc3)cc2)[C@H](O)C[C@H]1Cl (stereo partly drawn) [Entry 24, 7-{(1R,2S,3R,5R)-5-Chloro-3-hydroxy-2-[4-(1-hydroxy-3-phenyl-propyl)-phenyl]-cyclopentyl}-heptanoic acid] | > 10000 |  | not active | not active | 
CCCCC(O)C(C)(C)c1ccc([C@@H]2[C@@H](C/C=C\CCCC(=O)O)[C@H](Cl)C[C@H]2O)cc1 (mixture of isomers) [Entry 32, (Z)-7-{(1R,2S,3R,5R)-5-Chloro-3-hydroxy-2-[4-(2-hydroxy-1,1-dimethyl-hexyl)-phenyl]-cyclopentyl}-hept-5-enoic acid] | 9640 |  | not active | not active | 
CCCCCC(O)c1ccc([C@@H]2[C@@H](C/C=C\CCCC(=O)O)[C@H](Cl)C[C@H]2O)cc1 (single isomer, unassigned) [Entry 13] | > 10000 |  | not active | not active | 
O=C(O)CCCCCC[C@@H]1[C@@H](c2ccc(C(O)CCC3CCCCC3)cc2)[C@H](O)C[C@H]1Cl (stereo partly drawn) [Entry 16, 7-{(1R,2S,3R,5R)-5-Chloro-2-[4-(3-cyclohexyl-1-hydroxy-propyl)-phenyl]-3-hydroxy-cyclopentyl}-heptanoic acid] | 5580 |  | not active | not active | 
CCCCCC(O)c1ccc([C@@H]2[C@@H](CCCc3ccc(C(=O)O)s3)[C@H](Cl)C[C@H]2O)cc1 (stereo partly drawn) [Entry 2, 5-(3-{(1R,2S,3R,5R)-5-Chloro-3-hydroxy-2-[4-(1-hydroxy-hexyl)-phenyl]-cyclopentyl}-propyl)-thiophene-2-carboxylic acid] | 3020 |  | not active | not active | 
O=C(O)CCC/C=C\C[C@@H]1[C@@H](c2ccc(C(O)c3ccccc3)cc2)[C@H](O)C[C@H]1Cl (stereo partly drawn) [Entry 28, (Z)-7-{(1R,2S,3R,5R)-5-Chloro-3-hydroxy-2-[4-(hydroxy-phenyl-methyl)-phenyl]-cyclopentyl}-hept-5-enoic acid] |  | 1650 |  |  | not active
CCCCC(O)c1cccc([C@@H]2[C@@H](C/C=C\CCCC(=O)O)[C@H](Cl)C[C@H]2O)c1 (stereo partly drawn) [Entry 30, (Z)-7-{(1R,2S,3R,5R)-5-Chloro-3-hydroxy-2-[3-(1-hydroxy-pentyl)-phenyl]-cyclopentyl}-hept-5-enoic acid] | > 10000 | 2060 | not active |  | 
CCCCCC(O)c1ccc([C@@H]2[C@@H](C/C=C\CCCC(=O)O)[C@H](Cl)C[C@@H]2O)cc1 (stereo partly drawn) [Entry 34, (Z)-7-{(1R,2S,3S,5R)-5-Chloro-3-hydroxy-2-[4-(1-hydroxy-hexyl)-phenyl]-cyclopentyl}-hept-5-enoic acid] |  | 3280 | not active |  | 
CCCC1(C(O)c2cccc([C@@H]3[C@@H](Cc4cccc(CCC(=O)O)c4)[C@H](Cl)C[C@H]3O)c2)CCC1 (stereo partly drawn) [Entry 4, 3-[3-((1R,2S,3R,5R)-5-Chloro-3-hydroxy-2-{3-[hydroxy-(1-propyl-cyclobutyl)-methyl]-phenyl}-cyclopentylmethyl)-phenyl]-propionic acid] | > 10000 |  | not active | not active | 
O=C(O)CCC/C=C\C[C@@H]1[C@@H](c2ccc(C(O)Cc3ccccc3)cc2)[C@H](O)C[C@H]1Cl (mixture of isomers) [Entry 21, (Z)-7-{(1R,2S,3R,5R)-5-Chloro-3-hydroxy-2-[4-(1-hydroxy-2-phenyl-ethyl)-phenyl]-cyclopentyl}-hept-5-enoic acid] | > 10000 |  | not active | not active | 
CCCCCCC(O)c1ccc([C@@H]2[C@@H](C/C=C\CCCC(=O)O)[C@H](Cl)C[C@H]2O)cc1 (stereo partly drawn) [Entry 25, (Z)-7-{(1R,2S,3R,5R)-5-Chloro-3-hydroxy-2-[4-(1-hydroxy-heptyl)-phenyl]-cyclopentyl}-hept-5-enoic acid] | 2260 |  | not active | not active | 
CCCCCC(O)c1ccc([C@@H]2[C@@H](CCCc3ncc(C(=O)O)s3)[C@H](Cl)C[C@H]2O)cc1 (stereo partly drawn) [Entry 5, 2-(3-{(1R,2S,3R,5R)-5-Chloro-3-hydroxy-2-[4-(1-hydroxy-hexyl)-phenyl]-cyclopentyl}-propyl)-thiazole-5-carboxylic acid] |  |  | not active | not active | 
CCCCC(O)c1ccc([C@@H]2[C@@H](C/C=C\CCCC(=O)O)[C@H](Cl)C[C@H]2O)cc1 (mixture of isomers) [Entry 27, (Z)-7-{(1R,2S,3R,5R)-5-Chloro-3-hydroxy-2-[4-(1-hydroxy-pentyl)-phenyl]-cyclopentyl}-hept-5-enoic acid] |  |  | not active | not active | 
